Source: patent US9822414B2, “In vitro method for predicting in vivo genotoxicity of chemical compounds” (priority 2011, dated 2017)
Where “and” joins values, the source holds several entries; their conditions need not be identical. Equal values may be shown once. Entries after “also recorded” stand apart in the source; their conditions may differ. Read-outs that look alike come from different tables or passages of the source.

Key:
[1] = system: conventional in vitro genotoxicity assays; details: cited from earlier work
LOC100505880 = test: Gene expression of LOC100131914/LOC100505880 in HepG2 cells exposed to compound (microarray, log2 treatment:control ratio); format: cell-based, human
PWWP2B = test: Gene expression of PWWP2B in HepG2 cells exposed to compound (microarray, log2 treatment:control ratio); format: cell-based, human
HepG2 cell [2] = test: Class prediction of in vivo genotoxicity by the method of the invention (Ames stratification plus three-gene expression in HepG2); details: for Prediction (class prediction results using the method of the invention): 62 compounds, three replicates, HepG2 24 h
Salmonella typhimurium = details: cited from earlier work
rodents = details: cited from earlier work
NR0B2 = test: Gene expression of NR0B2 in HepG2 cells exposed to compound (microarray, log2 treatment:control ratio); format: cell-based, human
HepG2 cell [3] = system: HepG2 cell
[4] = positive when at least one in vivo assay (MN, CA) positive, equivocal considered positive
[5] = HepG2 cells, 24 h exposure, Ames positive compounds, one line per replicate of triplicate experiments
[6] = HepG2 cells, 24 h exposure, Ames positive compounds, one line per replicate of triplicate experiments, listed as Fu
[7] = HepG2, Ames positive compounds, per replicate, reference value −0.071
[8] = HepG2, Ames positive compounds, per replicate, reference value −0.099

Structure (SMILES): ClCc1ccccn1 [2CMP]
- In vitro GTX [1]: +
- LOC100505880 above or below the reference value (LOC100505880): − (minus sign indicates a value below the reference value)
- Log2 treatment: control ratio PWWP2B (PWWP2B): −0.214 and −0.23 and −0.031
- Prediction (class prediction results using the method of the invention) (HepG2 cell [2]): NGTX
- Ames (Salmonella typhimurium): +
- Standard (in vivo genotoxicity designation) (rodents; in vivo): NGTX
- NR0B2 above or below the reference value (NR0B2): − (minus sign indicates a value below the reference value)
- At least ⅔ genes +? (HepG2 cell [3]): NGTX
- Average result over three measurements (HepG2 cell [3]): NGTX

Structure (SMILES): COc1cc2c(c3oc(=O)c4c(c13)CCC4=O)[C@@H]1C=CO[C@@H]1O2 [AFB1]
- In vitro GTX [1]: +
- LOC100505880 above or below the reference value (LOC100505880): + (Plus sign indicates a value above the reference value)
- Log2 treatment: control ratio PWWP2B (PWWP2B): 0.098 and 0.275 and 0.088
- PWWP2B above or below the reference value (PWWP2B): + (Plus sign indicates a value above the reference value)
- Prediction (class prediction results using the method of the invention) (HepG2 cell [2]): GTX
- Ames (Salmonella typhimurium): +
- Standard (in vivo genotoxicity designation) (rodents; in vivo): GTX
- In vivo GTX (rodents; [4]): +
- NR0B2 above or below the reference value (NR0B2): + (Plus sign indicates a value above the reference value)
- At least ⅔ genes +? (HepG2 cell [3]): GTX
- Average result over three measurements (HepG2 cell [3]): GTX

Structure (SMILES): COc1ccc(N)cc1 [Anis]
- In vitro GTX [1]: +
- Results in the conventional in vitro genotoxicity assays ([1]; see Table 5): positive results
- LOC100505880 above or below the reference value (LOC100505880): + (Plus sign indicates a value above the reference value)
- Log2 treatment: control ratio PWWP2B (PWWP2B): 0.013 and 0.076 and 0.253
- PWWP2B above or below the reference value (PWWP2B): + (Plus sign indicates a value above the reference value)
- Prediction (class prediction results using the method of the invention) (HepG2 cell [2]): GTX
- Classification of NGTX compounds by the method of the invention (false positives) (HepG2 cell [2]; in vivo NGTX compounds): misclassification
- Ames (Salmonella typhimurium): +
- Standard (in vivo genotoxicity designation) (rodents; in vivo): NGTX
- NR0B2 above or below the reference value (NR0B2): + (Plus sign indicates a value above the reference value)
- At least ⅔ genes +? (HepG2 cell [3]): GTX
- Average result over three measurements (HepG2 cell [3]): GTX

Structure (SMILES): Cc1c2ccccc2c(C)c2c1ccc1ccccc12 [DMBA]
- In vitro GTX [1]: +
- Log2 treatment: control ratio LOC100505880 (LOC100505880): 0.08 and −0.059 and −0.025
- Log2 treatment: control ratio PWWP2B (PWWP2B): −0.155 and 0.088 and −0.102
- Prediction (class prediction results using the method of the invention) (HepG2 cell [2]): GTX+
- Ames (Salmonella typhimurium): +
- Standard (in vivo genotoxicity designation) (rodents; in vivo): GTX
- In vivo GTX (rodents; [4]): +
- Log2 treatment: control ratio NR0B2 (NR0B2): 0.064 and −0.116 and −0.076
- Average result over three measurements (HepG2 cell [3]): GTX

Structure (SMILES): O=c1[nH]cc(F)c(=O)[nH]1 [FU]
- In vitro GTX [1]: +
- LOC100505880 above or below the reference value (LOC100505880; HepG2, Ames positive compounds, per replicate, reference value −0.054): + (Plus sign indicates a value above the reference value); also recorded: − (minus sign indicates a value below the reference value)
- LOC100505880 above or below the reference value (LOC100505880; HepG2, Ames positive compounds, per replicate, reference value −0.054, listed as Fu): − (minus sign indicates a value below the reference value)
- Log2 treatment: control ratio LOC100505880 (LOC100505880; [5]): 0.583 and −0.067
- Log2 treatment: control ratio LOC100505880 (LOC100505880; [6]): −0.218
- PWWP2B above or below the reference value (PWWP2B; [7]): + (Plus sign indicates a value above the reference value)
- Log2 treatment: control ratio PWWP2B (PWWP2B; [5]): 0.256 and 0.175
- Log2 treatment: control ratio PWWP2B (PWWP2B; [6]): 0.008
- Ames (Salmonella typhimurium; Ames results based on NTP data): +
- In vivo GTX (rodents; in vivo): +
- Standard (in vivo genotoxicity designation) (rodents; in vivo): GTX
- NR0B2 above or below the reference value (NR0B2; [8]): + (Plus sign indicates a value above the reference value); also recorded: − (minus sign indicates a value below the reference value)
- NR0B2 above or below the reference value (NR0B2; HepG2, Ames positive compounds, per replicate, reference value −0.099, listed as Fu): − (minus sign indicates a value below the reference value)
- Log2 treatment: control ratio NR0B2 (NR0B2; [5]): 0.781 and −0.197
- Log2 treatment: control ratio NR0B2 (NR0B2; [6]): −0.457
- Average result over three measurements (HepG2 cell [3]): NGTX
- Prediction (class prediction results using the method of the invention) (HepG2 cell [3]): NGTX+

Structure (SMILES): O=c1c(O)c(-c2ccc(O)c(O)c2)oc2cc(O)cc(O)c12 [Que]
- In vitro GTX [1]: +
- Log2 treatment: control ratio LOC100505880 (LOC100505880; [5]): 0.062 and −0.337 and −0.727
- PWWP2B above or below the reference value (PWWP2B; [7]): − (minus sign indicates a value below the reference value)
- Log2 treatment: control ratio PWWP2B (PWWP2B; [5]): −0.206 and −0.437 and −0.113
- Ames (Salmonella typhimurium; Ames results based on NTP data): +
- In vivo GTX (rodents; in vivo): −
- Standard (in vivo genotoxicity designation) (rodents; in vivo): NGTX
- NR0B2 above or below the reference value (NR0B2; [8]): − (minus sign indicates a value below the reference value)
- Log2 treatment: control ratio NR0B2 (NR0B2; [5]): −0.635 and −0.69 and −3.709
- At least ⅔ genes +? (HepG2 cell [3]): NGTX
- Average result over three measurements (HepG2 cell [3]): NGTX
- Prediction (class prediction results using the method of the invention) (HepG2 cell [3]): NGTX

Structure (SMILES): [NH2][Pt]([NH2])([Cl])[Cl] [cisPt]
- In vitro GTX [1]: +
- LOC100505880 above or below the reference value (LOC100505880): + (Plus sign indicates a value above the reference value)
- Log2 treatment: control ratio PWWP2B (PWWP2B): 0.095 and −0.147 and −0.18
- Prediction (class prediction results using the method of the invention) (HepG2 cell [2]): GTX
- Ames (Salmonella typhimurium): +
- Standard (in vivo genotoxicity designation) (rodents; in vivo): GTX
- In vivo GTX (rodents; [4]): +
- NR0B2 above or below the reference value (NR0B2): + (Plus sign indicates a value above the reference value)
- At least ⅔ genes +? (HepG2 cell [3]): GTX
- Average result over three measurements (HepG2 cell [3]): GTX
